Among the data in PubChem BioAssay (NCI) are TGI and GI50 values, retold here.

SMILES strings stand for the structures.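 Step 1: Grow cells in 96-well plates. Step 2: Expose to compound for 48 hours at 5 concentrations. Step 3: Interpolate endpoints linearly; if unreached, use highest concentration. GI50 is the concentration that inhibits growth by half. TGI: total growth inhibition.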 Where a SMILES comes first, the peptide text is derived from it. The star is where a group is joined. Palmitoyl = CCCCCCCCCCCCCCCC(=O)*

Among the test systems are M14 melanoma; NCI-H226 lung; HOP-92 NSCLC; SNB-75 CNS; ACHN renal; NCI/ADR-RES ovarian; RPMI-8226 leukemia; IGROV1 ovarian; UACC-62 melanoma; SK-MEL-5 melanoma.
Experiment in all cases: NCI tumour cell line growth inhibition, 48 h

As to `CC12C=CC(=O)C=C1CCC1C3CCC(O)(C(=O)CO)C3(C)CC(O)C12F` (stereo not drawn), the TGI in the assay with M14 melanoma, in the assay with NCI-H226 lung, in the assay on HOP-92 NSCLC, in the assay with SNB-75 CNS, with ACHN renal and in the assay with NCI/ADR-RES ovarian was greater than 100 µM each time. Further, the TGI in the assay on RPMI-8226 leukemia, with IGROV1 ovarian, in the assay on UACC-62 melanoma and with SK-MEL-5 melanoma was greater than 100 µM throughout.
`CC(N)Cc1ccc(Cl)c(Cl)c1` (stereo not drawn): the TGI in the assay with M14 melanoma was 33.9 µM; in the assay on NCI-H226 lung, greater than 100 µM; with HOP-92 NSCLC, 57.4 µM; in the assay with SNB-75 CNS, greater than 92.3 µM; in the assay on ACHN renal, greater than 84.6 µM; in the assay with RPMI-8226 leukemia, greater than 84.6 µM. The TGI is greater than 100 µM in the assay with IGROV1 ovarian, 50.2 µM with UACC-62 melanoma and 31 µM in the assay with SK-MEL-5 melanoma.
For the molecule `O=C(/C=C/c1ccc(Oc2cc(C(=O)/C=C/c3ccc(O)cc3)c(O)cc2O)cc1)c1ccc(O)cc1O`, the TGI in the assay with M14 melanoma stood at 24.1 µM; with HOP-92 NSCLC, 55.3 µM; with SNB-75 CNS, 9.68 µM; with ACHN renal it was 22.2 µM; in the assay on NCI/ADR-RES ovarian, 22.7 µM; in the assay with RPMI-8226 leukemia, 8.09 µM. The figures for the TGI in the assay on IGROV1 ovarian, with UACC-62 melanoma and in the assay with SK-MEL-5 melanoma were 11.3 µM, 13 µM and 17.1 µM, respectively.
For `CON(C)c1nc(N(C)OC)nc(N(C)OC)n1`, the TGI in the assay with M14 melanoma, with NCI-H226 lung, in the assay with SNB-75 CNS, in the assay on ACHN renal, in the assay on NCI/ADR-RES ovarian and in the assay with RPMI-8226 leukemia was greater than 10 µM throughout. Also, the TGI in the assay with IGROV1 ovarian, with UACC-62 melanoma and with SK-MEL-5 melanoma was greater than 10 µM in each case.
With `Cc1ccc(-c2nc(N/N=C/C=C/c3ccccc3)c3ccccc3n2)cc1`, the TGI in the assay with M14 melanoma is greater than 100 µM; in the assay on NCI-H226 lung, greater than 100 µM; in the assay with HOP-92 NSCLC, greater than 100 µM; in the assay on SNB-75 CNS, greater than 100 µM; in the assay with ACHN renal, 75.9 µM; in the assay on NCI/ADR-RES ovarian it was greater than 100 µM. The TGI is greater than 100 µM with RPMI-8226 leukemia, greater than 100 µM in the assay on IGROV1 ovarian, 48.1 µM in the assay on UACC-62 melanoma and greater than 100 µM in the assay on SK-MEL-5 melanoma.
Take `C[N+](C)(C)c1ncnc2c1ncn2C1CC(O)C(CO)O1` (stereo not drawn): the TGI in the assay with M14 melanoma, in the assay with NCI-H226 lung, in the assay with HOP-92 NSCLC, in the assay on SNB-75 CNS, with ACHN renal and with NCI/ADR-RES ovarian was greater than 100 µM in each case. Also, the TGI with RPMI-8226 leukemia, with IGROV1 ovarian, in the assay on UACC-62 melanoma and in the assay with SK-MEL-5 melanoma was greater than 100 µM in each case.
For the molecule `Cn1c(-c2ccccc2)cc(-c2cccs2)c1-c1cccs1`, the TGI with NCI-H226 lung, in the assay on HOP-92 NSCLC, in the assay with SNB-75 CNS, in the assay on NCI/ADR-RES ovarian, in the assay with RPMI-8226 leukemia and with IGROV1 ovarian was greater than 100 µM each time. The TGI with UACC-62 melanoma and in the assay with SK-MEL-5 melanoma was greater than 100 µM throughout.
Turning to `OCCN(CCO)c1ncnc2nc[nH]c12`, the TGI with M14 melanoma, in the assay with NCI-H226 lung, in the assay on HOP-92 NSCLC, with ACHN renal, in the assay with NCI/ADR-RES ovarian and with RPMI-8226 leukemia was greater than 100 µM each time. Besides, the TGI in the assay with IGROV1 ovarian, in the assay on UACC-62 melanoma and with SK-MEL-5 melanoma was greater than 100 µM in each case.
On to `COC(=O)/C=C(\CC(=O)OC)n1nnnc1[C@@H]1C[C@H](COC(c2ccccc2)(c2ccccc2)c2ccccc2)[C@H]2OC(C)(C)O[C@H]21`, for which the TGI in the assay with M14 melanoma, in the assay on NCI-H226 lung, in the assay on HOP-92 NSCLC, with SNB-75 CNS, with ACHN renal and with RPMI-8226 leukemia was greater than 100 µM each time. The TGI with IGROV1 ovarian and in the assay on SK-MEL-5 melanoma was greater than 100 µM each time.
In the case of `CN1C(c2ccccc2)CC(=O)C(N)C1c1ccccc1` (stereo not drawn), the TGI with M14 melanoma is greater than 69.2 µM; in the assay on NCI-H226 lung it was greater than 100 µM; in the assay on HOP-92 NSCLC, 78.9 µM; in the assay with SNB-75 CNS, greater than 100 µM; with ACHN renal it was greater than 100 µM; in the assay with RPMI-8226 leukemia, 44.1 µM. In addition, the TGI was greater than 100 µM in the assay with IGROV1 ovarian, 81.2 µM in the assay with UACC-62 melanoma and 33.6 µM in the assay on SK-MEL-5 melanoma.
For `C/C(=N/N=C(\[O-])c1ccncc1)C(F)(F)F.C/C(=N\N=C(/[O-])c1ccncc1)C(F)(F)F.[Ni+2]`, the GI50 in the assay with NCI-H226 lung, with SNB-75 CNS and in the assay with NCI/ADR-RES ovarian was greater than 1 µM throughout. Besides, the TGI in the assay with NCI-H226 lung, in the assay on SNB-75 CNS and in the assay on NCI/ADR-RES ovarian was greater than 1 µM throughout.
Turning to `CCCCCCCCCCCCCCCC(=O)N1CCCC1C(=O)NCC(=O)NC(Cc1ccccc1)C(=O)NC(C)C(=O)NC(CO)C(=O)NC(Cc1ccc(O)cc1)C(=O)NC(CCCCN)C(=O)NC(CC(C)C)C(=O)NC(CCCN=C(N)N)C(=O)N1CCCC1C(=O)NCC(N)=O` (stereo not drawn) (Palmitoyl-PGFASYKLRPG-NH2; configuration not given here), the GI50 was 16.8 µM in the assay with M14 melanoma; 15.9 µM with NCI-H226 lung; 15.8 µM with HOP-92 NSCLC; 22.9 µM in the assay with SNB-75 CNS; 16.2 µM in the assay on NCI/ADR-RES ovarian; 4.36 µM with RPMI-8226 leukemia. Also, the GI50 with IGROV1 ovarian is 20.1 µM; in the assay with SK-MEL-5 melanoma, 33.4 µM. Further, the TGI in the assay with M14 melanoma stood at 35.3 µM; in the assay on NCI-H226 lung it was 35.6 µM; in the assay with HOP-92 NSCLC it was 34.7 µM; with SNB-75 CNS it was 43.5 µM; in the assay on NCI/ADR-RES ovarian, 35 µM; in the assay on RPMI-8226 leukemia it was 16.4 µM. In addition, the TGI in the assay with IGROV1 ovarian is 46.1 µM; in the assay with SK-MEL-5 melanoma it was greater than 100 µM.
